The source of these data is patent US9458463B2, “Method for treatment of diabetes by a small molecule inhibitor for GRK5” (MAX-PLANCK-GESELLSCHAFT ZUR FÖRDERUNG DER WISSENSCHAFTEN …, priority 2010, dated 2016).

Test [1] deals with beta-TC6 cells. In words: Insulin HTRF assay on beta-TC6 supernatant (relative activity Ar). The format is cell-based, mouse. As to conditions: group I. From the text:
For further screening of compounds derived from compounds described above for their ability to regulate insulin release an insulin HTRF® (Homogeneous Time-Resolved Fluorescence; Cisbio International, France) was used. This assay is based on two antibodies against insulin binding to different epitopes of insulin. One of these antibodies is coupled to Europium (Ab-Eu-Cryptate) and the other one to the fluorophore XL665 (Ab-XL665). If the insulin is secreted into the supernatant of cell culture, both antibodies can bind to insulin and come therefore into close proximity, which allows upon excitation that energy transfer between (FRET) the long-life fluorescent donor Europium (cryptate) and the acceptors XL665. FRET increases proportionally with insulin concentration.
On day 1, 15 k beta-TC6 cells per well were seeded for 24 or 48 h in 50 μL complete medium. On day 2 or respective on day 3, the medium is removed and cells are washed with 60 μL 1×PBS and 20 μL induction buffer is added using BioTek washer. Subsequently, 10 μL Sunitininb (5-μM f.c.) or the test compound in induction buffer; 0.5% f.c. DMSO (CyBi-well) is transferred to the cells. The cells are then incubated at 37° C. for 2, 3, 4 h. […]
First 10 μL supernatant is transferred from the cell plates in HTRF plates (CyBi-well). […] Finally HTRF is measured on ViewLux ultra high throughput microplate imager (PerkinElmer). […]

In test [2] the test system is C2C12 cells. Description: 2-NBDG glucose uptake in C2C12 cells (flow cytometry). Format: cell-based, mouse. As to conditions: group II; at 5 μM, 1 h, 100 μM 2-NBDG. The procedure:
(§1) 2-NBDG is a fluorescently-labeled deoxyglucose analog that is commonly used to directly monitor glucose uptake by living cells. For 2-NBDG detection, cells were cultured for 1 h together with 5 μM of a small molecule in glucose free media supplied with 100 μM 2-NBDG at 37° C. before collecting. Furthermore, as internal controls, samples of glucose free media, rFc4espectively glucose free media with test compound, were tested. Subsequently, cells were washed, trypsinized and harvested in ice-cold PBS before centrifuged at 1.6×10^3 rpm at 4° C. Cells were analyzed by flow cytometry (FACS Calibur, BD Bioscience, respectively a BD Accuri® C6 Flow Cytometer).
as §1, with “an inventive compound” for “a small molecule”, “media,” for “media, rFc4espectively”, “compound, respectively glucose free media supplied with 100 μM 2-NBDG” for “compound,”

Test [3] deals with T1, full length GRK5 (Homo sapiens, UniProt P34947).
T1 construct: 6/2 fold concentrated full length GRK5 (Millipore, #14-714) in reaction buffer; purchased Millipore 14-714
T1 sequence (P34947 whole entry): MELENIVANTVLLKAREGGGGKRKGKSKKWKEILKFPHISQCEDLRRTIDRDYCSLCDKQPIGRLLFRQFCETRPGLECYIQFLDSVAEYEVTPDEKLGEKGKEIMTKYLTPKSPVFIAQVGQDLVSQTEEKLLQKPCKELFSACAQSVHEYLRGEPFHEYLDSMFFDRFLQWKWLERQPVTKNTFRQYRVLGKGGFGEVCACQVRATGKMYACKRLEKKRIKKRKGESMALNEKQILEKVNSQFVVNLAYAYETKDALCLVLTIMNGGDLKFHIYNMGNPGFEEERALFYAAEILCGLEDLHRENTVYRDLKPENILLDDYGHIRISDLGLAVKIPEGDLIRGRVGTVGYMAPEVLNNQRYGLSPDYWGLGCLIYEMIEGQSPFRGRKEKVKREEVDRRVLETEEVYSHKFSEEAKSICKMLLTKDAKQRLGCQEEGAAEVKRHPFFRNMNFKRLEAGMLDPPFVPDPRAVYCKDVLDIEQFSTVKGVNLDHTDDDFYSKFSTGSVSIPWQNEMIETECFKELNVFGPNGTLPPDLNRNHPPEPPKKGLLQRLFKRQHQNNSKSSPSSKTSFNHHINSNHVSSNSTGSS
In words: GRK5 kinase activity assay, ADP Glo Kinase Assay technology (Promega). Format: biochemical. Conditions: group II; ADP Glo Kinase Assay (Table 9-B). In short, it runs like this: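 Casein (10 μM) phosphorylation with 100 μM ATP in 20 mM MES pH 6.0, 1 mM DTT, 10 mM MgCl2, 0.01% Tween20, 120 min at room temperature; ADP quantified by ADP-Glo luminescence.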

Test [4] addresses T2, GRK5 (Homo sapiens, UniProt P34947).
T2 construct: purchased Millipore (KinaseProfiler service)
In words: Millipore KinaseProfiler radiometric filtration binding assay. The format is biochemical. Conditions: group II; Millipore KinaseProfiler (Table 10). The procedure:
(§2) As alternative, IC50 values are determined by a radiometric based filtration binding assay, namely Millipore KinaseProfiler™. GRK5 is incubated with 8 mM MOPS pH7.0, 0.2 mM EDTA, 2 mg/mL casein, 10 mM MgAcetate and […] (specific activity approx. 500 cpm/pmol, concentration as required). The reaction is initiated by the addition of the MgATP mix. After incubation for 40 minutes at room temperature, the reaction is stopped by the addition of 3% phosphoric acid solution. 10 μL of the reaction is then spotted onto a P30 filtermat and washed three times for 5 minutes in 75 mM phosphoric acid and once in methanol prior to drying and scintillation counting.
as §2, with “IC50” for “As alternative, IC50”, “pH 7.0,” for “pH7.0,”

In test [5] the test system is beta-TC6 insulinoma cells. Description: Insulin release by beta-TC6 cells, rat/mouse insulin ELISA, high glucose. Conditions: Mus musculus, Beta-TC6, 2 h, group II; 5 μM, 2 h, high glucose (4.5 g/L); % increase in regard to DMSO control (set at 0%). Format: cell-based. As for the experimental part:
(§3) Release of insulin was detected using a rat/mouse insulin ELISA.
After incubation, the supernatant of the beta-TC6 insulinoma cells was diluted 1:20. The insulin release was measured with rat/mouse insulin ELISA (Merck Millipore Darmstadt, Cat. # EZRMI-13K) by following the manufacture protocol. The enzyme activity of the horseradish peroxidase of the immobilized biotinylated antibodies was monitored spectrophotometrically by the increased absorbency at 490 nm, and corrected by the absorbency at 610 nm.
as §3
The effect on the insulin release of each kinase depletion was monitored by using a rat/mouse insulin ELISA.
For the validation of the negative modulating kinases SCYL1, GRK5, and ADCK1, the target genes were depleted using four different siRNA-sequences each (FIG. 2A-D). The gene-depletion was measured via mRNA-levels after 72 hours while the insulin release was measured using a rat/mouse insulin ELISA after two hours incubation.

For test [6], the system named is 3T3-L1 cells. In words: Cell viability assay (CellTiter-Glo / automated cell number) in 3T3-L1. As to conditions: Mus musculus, read-out: Inhibition of cell viability IC50. The format is cell-based. The essentials:
(§4)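 ATP read by CellTiter-Glo luminescence after 10 min lysis at RT. Imaging variant: 10000 cells/well treated 72 h, then fixed and stained with Hoechst 33342 (20 μg/ml, 30 min, 37 °C). Nuclei counted automatically over six fields at 10×, compared with untreated controls, giving IC50.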

For test [7], the system named is beta TC6 cells. Description: Cell viability assay (CellTiter-Glo / automated cell number) in beta TC6. As to conditions: Mus musculus, read-out: Inhibition of cell viability IC50. The format is cell-based. In short, it runs like this:
as §4

Test [8] deals with C2C12 cells. In words: Cell viability assay (CellTiter-Glo / automated cell number) in C2C12. Conditions: Mus musculus, read-out: Inhibition of cell viability IC50. The format is cell-based. The essentials: as §4
The subject of test [9] is HepG2 cells. Description: Cell viability assay (CellTiter-Glo / automated cell number) in HepG2. As to conditions: Homo sapiens, read-out: Inhibition of cell viability IC50. The format is cell-based. The essentials:
as §4

For test [10], the system named is 3T3-L1 pre-adipocytes. Description: 2-NBDG uptake in 3T3-L1 pre-adipocytes. The format is cell-based. As to conditions: GRK5 screen compounds.

T2 sequence (P34947 whole entry): as above

For `CS(=O)(=O)c1ccc(Nc2nccc3[nH]c(-c4ccccc4)cc23)cc1` [compound 324, N-(4-methylsulfonylphenyl)-2-phenyl-1H-pyrrolo[3,2-c]pyridin-4-annine], in [1], the “Ar (relative activity)” value was “+++ (50% ≦ Ar < 100%)”.
Turning to `C[C@@H](NC(=O)c1ccc2c(c1)/C(=C/c1ccc(C(=O)N3CCN(C)CC3)cc1)C(=O)N2)c1ccccc1` [II.143, (3Z)-3-[4-(4-methyl-piperazine-1-carbonyl)-benzylidene]-2-oxo-2,3-dihydro-1H-indole-5-carboxylic acid (1R)-(1-phenyl-ethyl)-amide], in test [2], the “2-NBDG Glucose Uptake [%]” value is recorded as 72%.
Regarding `COc1cc(Nc2nccc3c2cc(-c2ccc(C(=O)N(C)C)cc2)n3C)cc(C(F)(F)F)c1` [compound 220, N,N-dimethyl-4-[1-methyl-4-(3-methoxy-5-(trifuloromethyl)phenylamino)pyrrolo[3,2-c]pyridin-2-yl]benzamide], the “Ar (relative activity)” value in test [1] is given as “+ (0% < Ar < 30%)”.
Turning to `CCC(NC(=O)c1ccc2c(c1)/C(=C/c1[nH]c(C)c(C(=O)N3CCN(C)CC3)c1C)C(=O)N2)c1ccc(Cl)cc1` (centres unmarked) [II.12, (3Z)-N-[1-(4-chlorophenyl)propyl]-3-({3,5-dimethyl-4-[(4-methylpiperazin-1-yl)carbonyl]-1H-pyrrol-2-yl}methylene)-2-oxoindoline-5-carboxamide], the IC50 in test [3] and in test [4] was 100 to 1000 nM throughout. Also, in test [5], the activation at 5 µM came to 214%.
With `C[C@@H](NC(=O)c1ccc2c(c1)/C(=C/Nc1ccc(CN3CCCCC3)cc1)C(=O)N2)c1ccc(Cl)cc1` [II.73, (3Z)-N-[(1R)-1-(4-chlorophenyl)ethyl]-2-oxo-3-({[4-(piperidin-1-ylmethyl)phenyl]amino}methylene)indoline-5-carboxamide], the IC50 was 100 to 1000 nM in test [3]; 100 to 1000 nM in [4]; 2730 nM in test [6]; 730 nM in test [7]; 2330 nM in test [8]; 890 nM in test [9]. Moreover, the “2-NBDG Glucose Uptake [%]” value in test [2] was 127%.
For `CC[C@H](NC(=O)c1ccc2c(c1)/C(=C/c1[nH]c(C)c(C(=O)N3CCC[C@H]3CN3CCCC3)c1C)C(=O)N2)c1ccccc1` [II.47, (3Z)-3-[(3,5-dimethyl-4-{[(2S)-2-(pyrrolidin-1-ylmethyl)pyrrolidin-1-yl]carbonyl}-1H-pyrrol-2-yl)methylene]-2-oxo-N-[(1S)-1-phenylpropyl]indoline-5-carboxamide], the 50% inhibitory concentration (IC50) in [3] was 2000 to 10000 nM; in test [4], 2000 to 10000 nM; in test [6], 1340 nM; in test [7], 2210 nM; in [8], above 10000 nM; in test [9], 3250 nM.
As for `Cc1ccc([C@@H](C)NC(=O)c2ccc3c(c2)/C(=C/Nc2ccc(CN4CCCCC4)cc2)C(=O)N3)cc1` [II.72, (3Z)-N-[(1R)-1-(4-methylphenyl)ethyl]-2-oxo-3-({[4-(piperidin-1-ylmethyl)phenyl]amino}methylene)indoline-5-carboxamide], the IC50 in [3] was 100 to 1000 nM; in test [4], 100 to 1000 nM; in test [6], 1540 nM; in test [7], 1270 nM; in test [8] it was above 10000 nM; in test [9] it was 2070 nM.
For `CC[C@@H](NC(=O)c1ccc2c(c1)/C(=C/c1[nH]c(C)c(C(=O)N3CCC(N4CCN(C)CC4)CC3)c1C)C(=O)N2)c1ccccc1` [II.53, (3Z)-3-[(3,5-dimethyl-4-{[4-(4-methylpiperazin-1-yl)piperidin-1-yl]carbonyl}-1H-pyrrol-2-yl)methylene]-2-oxo-N-[(1R)-1-phenylpropyl]indoline-5-carboxamide], the IC50 in test [3] was 100 to 1000 nM; in test [4] it was 100 to 1000 nM; in [6], 1140 nM; in [7] it was 1550 nM; in test [8], above 10000 nM; in [9], 1300 nM.
For `CC[C@@H](NC(=O)c1ccc2c(c1)/C(=C/c1[nH]c(C)c(C(=O)N3CCCCC3)c1C)C(=O)N2)c1ccccc1` [II.63, (3Z)-3-{[3,5-dimethyl-4-(piperidin-1-ylcarbonyl)-1H-pyrrol-2-yl]methylene)-2-oxo-N-[(1R)-1-phenylpropyl]indoline-5-carboxamide], the half-inhibitory concentration (IC50) is 100 to 1000 nM in test [3]; 100 to 1000 nM in test [4]; 940 nM in test [6]; 1260 nM in test [7]; 1720 nM in test [8]; 1250 nM in test [9].
Take `Nc1cccc(-c2cc3cnc(Nc4cccnc4)cc3[nH]2)c1` [compound 2, 2-(3-aminophenyl)-N-(3-pyridyl)-1H-pyrrolo[3,2-c]pyridin-6-amine]: the “Glucose uptake (2-NBDG) in 3T3-L1 pre-adipocytes” value in [10] was “stimulated”.
